As usually defined, the IC50 is the concentration that gives 50% inhibition. The low end stands for higher potency, the high end for lower potency.

Chain of human ACC2 (O00763 129-2458): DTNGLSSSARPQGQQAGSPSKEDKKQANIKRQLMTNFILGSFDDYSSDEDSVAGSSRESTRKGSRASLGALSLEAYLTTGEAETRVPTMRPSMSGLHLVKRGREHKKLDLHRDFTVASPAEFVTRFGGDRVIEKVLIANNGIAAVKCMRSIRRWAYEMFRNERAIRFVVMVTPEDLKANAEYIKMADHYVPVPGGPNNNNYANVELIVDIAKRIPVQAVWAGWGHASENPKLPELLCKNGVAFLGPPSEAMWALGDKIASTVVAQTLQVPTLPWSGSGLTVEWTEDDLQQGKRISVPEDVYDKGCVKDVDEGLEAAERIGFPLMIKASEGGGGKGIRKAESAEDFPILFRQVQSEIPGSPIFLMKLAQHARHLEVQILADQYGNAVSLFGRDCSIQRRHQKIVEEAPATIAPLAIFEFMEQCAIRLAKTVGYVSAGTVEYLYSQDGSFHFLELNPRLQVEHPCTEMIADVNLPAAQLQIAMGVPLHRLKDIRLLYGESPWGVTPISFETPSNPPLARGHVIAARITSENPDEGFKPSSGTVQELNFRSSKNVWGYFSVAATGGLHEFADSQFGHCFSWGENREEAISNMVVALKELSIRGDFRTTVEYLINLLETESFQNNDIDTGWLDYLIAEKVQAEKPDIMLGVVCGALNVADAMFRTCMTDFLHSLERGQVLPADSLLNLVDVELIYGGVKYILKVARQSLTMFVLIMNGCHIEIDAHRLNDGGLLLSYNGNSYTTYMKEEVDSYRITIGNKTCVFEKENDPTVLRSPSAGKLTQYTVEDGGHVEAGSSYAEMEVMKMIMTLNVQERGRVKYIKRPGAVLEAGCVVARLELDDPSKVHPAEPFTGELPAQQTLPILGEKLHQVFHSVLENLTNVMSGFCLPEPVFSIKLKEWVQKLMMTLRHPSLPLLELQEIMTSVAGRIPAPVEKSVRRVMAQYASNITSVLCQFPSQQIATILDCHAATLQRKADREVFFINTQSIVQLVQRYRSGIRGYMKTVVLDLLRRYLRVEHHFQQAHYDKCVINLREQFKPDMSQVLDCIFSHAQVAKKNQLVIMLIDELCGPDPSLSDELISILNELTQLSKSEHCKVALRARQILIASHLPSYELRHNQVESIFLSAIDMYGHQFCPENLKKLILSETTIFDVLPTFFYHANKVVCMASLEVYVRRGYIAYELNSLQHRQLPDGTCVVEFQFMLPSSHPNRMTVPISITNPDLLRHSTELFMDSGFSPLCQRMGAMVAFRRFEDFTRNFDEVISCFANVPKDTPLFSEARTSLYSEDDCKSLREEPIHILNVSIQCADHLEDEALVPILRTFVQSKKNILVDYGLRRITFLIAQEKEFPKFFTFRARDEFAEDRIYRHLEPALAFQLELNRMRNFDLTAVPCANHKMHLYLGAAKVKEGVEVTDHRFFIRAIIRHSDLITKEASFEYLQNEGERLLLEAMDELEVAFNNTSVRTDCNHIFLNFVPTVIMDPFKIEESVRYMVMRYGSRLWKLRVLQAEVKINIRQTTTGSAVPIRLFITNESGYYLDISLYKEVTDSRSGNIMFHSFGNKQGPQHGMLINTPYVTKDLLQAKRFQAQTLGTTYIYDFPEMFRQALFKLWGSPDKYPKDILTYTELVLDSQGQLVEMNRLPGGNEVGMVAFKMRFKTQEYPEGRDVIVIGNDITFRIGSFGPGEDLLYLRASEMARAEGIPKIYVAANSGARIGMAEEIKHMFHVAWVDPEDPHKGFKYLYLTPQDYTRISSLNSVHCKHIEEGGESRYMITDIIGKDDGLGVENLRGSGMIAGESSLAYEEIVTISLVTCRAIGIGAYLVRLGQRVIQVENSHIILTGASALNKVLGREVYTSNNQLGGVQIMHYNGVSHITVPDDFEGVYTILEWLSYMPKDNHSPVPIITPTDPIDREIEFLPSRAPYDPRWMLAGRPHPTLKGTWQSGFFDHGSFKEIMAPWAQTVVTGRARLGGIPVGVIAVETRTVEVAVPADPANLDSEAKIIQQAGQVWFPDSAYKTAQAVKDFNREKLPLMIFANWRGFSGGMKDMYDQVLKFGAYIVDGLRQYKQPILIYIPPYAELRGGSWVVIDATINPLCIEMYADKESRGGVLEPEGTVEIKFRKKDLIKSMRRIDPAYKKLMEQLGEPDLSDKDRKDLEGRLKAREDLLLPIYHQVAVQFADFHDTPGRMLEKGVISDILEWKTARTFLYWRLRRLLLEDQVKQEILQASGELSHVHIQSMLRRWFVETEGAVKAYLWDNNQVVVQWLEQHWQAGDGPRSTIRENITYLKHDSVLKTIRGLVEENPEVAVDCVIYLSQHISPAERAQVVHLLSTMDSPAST

The target of this test is human ACC2 (Homo sapiens (Human), UniProt O00763). The experiment in a line: ACC2 assay, spectrophotometric 384 well assay (NADH-linked, coupled lactate dehydrogenase/pyruvate kinase reaction). Format: biochemical. The note with it: hACC2 construct lacking the 128 N-terminal amino acids; 25° C., 340 nm over 15 minutes. An outline of the steps:
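N-terminally truncated human ACC2 (lacking 128 residues) expressed in insect cells; coupled PK/LDH read-out of ADP as NADH loss at 340 nm, 15 min, 25 °C. Tris pH 7.5 with citrate and KHCO3; 200 μM acetyl-CoA, 500 μM ATP, 1% DMSO.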
Compound `CC(=O)NC(C)Cc1ccc(C#Cc2ccc(OCCn3ccnc3)cc2)cc1` (stereo not drawn) [Example 9.37] returned an IC50 of 520 nM. To `CC(=O)NC(C)Cc1ccc(C#Cc2ccc(OCc3c[nH]cn3)cc2)cc1` (stereo not drawn) [Example 9.38] belongs 2600 nM. Compound `CC(=O)NC(C)Cc1ccc(C#Cc2ccc(OCC(C)F)cc2)cc1` (stereo not drawn) [Example 9.39] registered a 50% inhibitory concentration (IC50) of 180 nM. The figure for `CC(=O)NC(C)Cc1ccc(C#Cc2ccc(OCC3CC3(F)F)cc2)cc1` (stereo not drawn) [Example 9.40] is 50 nM; for `CC(=O)NC(C)Cc1ccc(C#Cc2ccc(OCc3cnco3)cc2)cc1` (stereo not drawn) [Example 9.41] it is 500 nM; for `CC(=O)NC(C)Cc1ccc(C#Cc2ccc(OCc3cccnc3)cc2)cc1` (stereo not drawn) [Example 9.42] it is 630 nM. `CC(=O)NC(C)Cc1ccc(C#Cc2ccc(Oc3cncnc3)cc2)cc1` (stereo not drawn) [Example 10.1, N-(1-(4-((4-(Pyrimidin-5-yloxy)phenyl)ethynyl)phenyl)propan-2-yl)acetamide] gave an IC50 of 190 nM. To `CC(=O)NC(C)Cc1ccc(C#Cc2ccc(Oc3ccncc3)cc2)cc1` (stereo not drawn) [Example 10.2] belongs 1200 nM. The figure for `CC(=O)NC(C)Cc1ccc(C#Cc2cccc(Oc3cncnc3)c2)cc1` (stereo not drawn) [Example 10.3] is 1800 nM; for `COCCN(C)c1nccc(C#Cc2ccc(CC(C)NC(C)=O)cc2)n1` (stereo not drawn) [Example 11.1, N-(1-(4-((2-((2-Methoxyethyl)(methyl)amino)pyrimidin-4-yl)ethynyl)phenyl)propan-2-yl)acetamide] it is 1200 nM. `CC(=O)NC(C)Cc1ccc(C#Cc2ccnc(N(C)Cc3ccncc3)n2)cc1` (stereo not drawn) [Example 11.2] returned an IC50 of 30000 nM. To `CCCNc1nccc(C#Cc2ccc(CC(C)NC(C)=O)cc2)n1` (stereo not drawn) [Example 11.3] belongs 2300 nM. The figure for `CCN(C)c1nccc(C#Cc2ccc(CC(C)NC(C)=O)cc2)n1` (stereo not drawn) [Example 11.4] is 530 nM; for `COc1ccc(Nc2nccc(C#Cc3ccc(CC(C)NC(C)=O)cc3)n2)cn1` (stereo not drawn) [Example 11.5] it is 7200 nM; for `CC(=O)NC(C)Cc1ccc(C#Cc2ccnc(N(C)c3ccccc3)n2)cc1` (stereo not drawn) [Example 11.6] it is 930 nM. For the compound `CC(=O)NC(C)Cc1ccc(C#Cc2ccnc(NC(C)C)n2)cc1` (stereo not drawn) [Example 11.7], half-maximal inhibition (IC50) was put at 12700 nM. The figure for `CC(=O)NC(C)Cc1ccc(C#Cc2ccnc(N(C)C(C)C)n2)cc1` (stereo not drawn) [Example 11.8] is 750 nM. To `CC(=O)NC(C)Cc1ccc(C#Cc2ccnc(N(C)C3CCC(O)CC3)n2)cc1` (stereo not drawn) [Example 11.9] belongs 4000 nM; to `CC(=O)NC(C)Cc1ccc(C#Cc2ccnc(N3CCC(CO)C3)n2)cc1` (stereo not drawn) [Example 11.10], 16700 nM. The figure for `CC(=O)NC(C)Cc1ccc(C#Cc2ccnc(N(C)C3CCCCC3)n2)cc1` (stereo not drawn) [Example 11.11] is 260 nM; for `CC(=O)NC(C)Cc1ccc(C#Cc2ccnc(N3CCC3)n2)cc1` (stereo not drawn) [Example 11.12] it is 5600 nM; for `CC(=O)NC(C)Cc1ccc(C#Cc2ccnc(NCC3CC3)n2)cc1` (stereo not drawn) [Example 11.13] it is 1900 nM. Compound `CCNc1nccc(C#Cc2ccc(CC(C)NC(C)=O)cc2)n1` (stereo not drawn) [Example 11.14] displayed an IC50 of 13800 nM.

With `CC(=O)NC(C)Cc1ccc(C#Cc2ccnc(N(C)CC(C)C)n2)cc1` (stereo not drawn) [Example 11.15], the IC50 amounted to 330 nM.

`CC(=O)NC(C)Cc1ccc(C#Cc2ccnc(N3CCCC(F)C3)n2)cc1` (stereo not drawn) [Example 11.16]: inhibition was half-maximal at 680 nM (IC50). The figure for `COC(C)CN(C)c1nccc(C#Cc2ccc(CC(C)NC(C)=O)cc2)n1` (stereo not drawn) [Example 11.17] is 1700 nM. `CC(=O)NC(C)Cc1ccc(C#Cc2ccnc(N3CCC(C(F)(F)F)CC3)n2)cc1` (stereo not drawn) [Example 11.18] had an IC50 of 510 nM. The figure for `CC(=O)NC(C)Cc1ccc(C#Cc2ccnc(NC(C)C3CC3)n2)cc1` (stereo not drawn) [Example 11.19] is 5900 nM; for `CC(=O)NC(C)Cc1ccc(C#Cc2ccnc(N(C)CC3CC3)n2)cc1` (stereo not drawn) [Example 11.21] it is 250 nM; for `CC(=O)NC(C)Cc1ccc(C#Cc2ccnc(N3CC(F)(F)C3)n2)cc1` (stereo not drawn) [Example 11.22] it is 8100 nM.

In turn, `CC(=O)NC(C)Cc1ccc(C#Cc2ccnc(N(C)CC3CCCCC3)n2)cc1` (stereo not drawn) [Example 11.23] registered an IC50 of 370 nM. The figure for `CC(=O)NC(C)Cc1ccc(C#Cc2ccnc(N3CCC(C)(C)C3)n2)cc1` (stereo not drawn) [Example 11.24] is 390 nM. `CC#CCN(CC(C)C)c1nccc(C#Cc2ccc(CC(C)NC(C)=O)cc2)n1` (stereo not drawn) [Example 11.25] registered an IC50 of 1800 nM. `CC(=O)NC(C)Cc1ccc(C#Cc2ccnc(N3CCC4(CCC4)C3)n2)cc1` (stereo not drawn) [Example 11.26] gave an IC50 of 430 nM. The figure for `CC(=O)NC(C)Cc1ccc(C#Cc2ccnc(N3CCCC(c4ccccc4)C3)n2)cc1` (stereo not drawn) [Example 11.27] is 400 nM; for `CC(=O)NC(C)Cc1ccc(C#Cc2ccnc(N3CCC4(CCCC4)C3)n2)cc1` (stereo not drawn) [Example 11.28] it is 380 nM. The figure for `CC(=O)NC(C)Cc1ccc(C#Cc2ccnc(N3CCC(C#N)C3)n2)cc1` (stereo not drawn) [Example 11.29] is 4500 nM; for `CC(=O)NC(C)Cc1ccc(C#Cc2ccnc(N(C)C3CCOC3)n2)cc1` (stereo not drawn) [Example 11.31] it is 2000 nM. To `CC(=O)NC(C)Cc1ccc(C#Cc2ccnc(N(C)CCC(C)(C)C)n2)cc1` (stereo not drawn) [Example 11.32] belongs 350 nM; to `CC(=O)NC(C)Cc1ccc(C#Cc2ccnc(N(C)CC(F)(F)F)n2)cc1` (stereo not drawn) [Example 11.33], 680 nM. Consider `COC1CN(c2nccc(C#Cc3ccc(CC(C)NC(C)=O)cc3)n2)C1` (stereo not drawn) [Example 11.34], for which half-maximal inhibition (IC50) required 13900 nM. The figure for `COCC1CCCN1c1nccc(C#Cc2ccc(CC(C)NC(C)=O)cc2)n1` (stereo not drawn) [Example 11.35] is 2400 nM; for `CC(=O)NC(C)Cc1ccc(C#Cc2ccnc(N3CCCC(C(F)(F)F)C3)n2)cc1` (stereo not drawn) [Example 11.36] it is 690 nM; for `CC(=O)NC(C)Cc1ccc(C#Cc2ccnc(N3CCN(C)CC3)n2)cc1` (stereo not drawn) [Example 11.37] it is 14300 nM. To `CC(=O)NC(C)Cc1ccc(C#Cc2ccnc(N3CCCCC3)n2)cc1` (stereo not drawn) [Example 11.38] belongs 430 nM. To `CC(=O)NC(C)Cc1ccc(C#Cc2ccnc(N3CCCCC3C)n2)cc1` (stereo not drawn) [Example 11.39] belongs 720 nM; to `CC(=O)NC(C)Cc1ccc(C#Cc2ccnc(N3CCC(c4ccccc4)CC3)n2)cc1` (stereo not drawn) [Example 11.40], 1100 nM; to `CC(=O)NC(C)Cc1ccc(C#Cc2ccnc(Nc3ccccc3)n2)cc1` (stereo not drawn) [Example 11.41], 2700 nM. `CC(=O)NC(C)Cc1ccc(C#Cc2ccnc(N3CCOCC3)n2)cc1` (stereo not drawn) [Example 11.42]: the IC50 stood at 620 nM. To `CC(=O)NC(C)Cc1ccc(C#Cc2ccnc(N3CCCC3)n2)cc1` (stereo not drawn) [Example 11.43] belongs 930 nM. The figure for `CC(=O)NC(C)Cc1ccc(C#Cc2ccnc(NCC(C)C)n2)cc1` (stereo not drawn) [Example 11.44] is 1300 nM; for `CC(=O)NC(C)Cc1ccc(C#Cc2ccnc(N(C)Cc3ccccc3)n2)cc1` (stereo not drawn) [Example 11.45] it is 530 nM. The figure for `CCCN(C)c1nccc(C#Cc2ccc(CC(C)NC(C)=O)cc2)n1` (stereo not drawn) [Example 11.46] is 290 nM; for `CC(=O)NC(C)Cc1ccc(C#Cc2ccnc(N3CCN(S(C)(=O)=O)CC3)n2)cc1` (stereo not drawn) [Example 11.47] it is 7400 nM; for `COC(=O)CN(C)c1nccc(C#Cc2ccc(CC(C)NC(C)=O)cc2)n1` (stereo not drawn) [Example 11.48] it is 10300 nM.

`CCN(CC)c1nccc(C#Cc2ccc(CC(C)NC(C)=O)cc2)n1` (stereo not drawn) [Example 11.49] displayed an IC50 of 460 nM. To `CCOc1nccc(C#Cc2ccc(CC(C)NC(C)=O)cc2)n1` (stereo not drawn) [Example 12.1, N-(1-(4-((2-ethoxypyrimidin-4-yl)ethynyl)phenyl)propan-2-yl)acetamide] belongs 8500 nM; to `CC(=O)NC(C)Cc1ccc(C#Cc2ccnc(OC3CCCC3)n2)cc1` (stereo not drawn) [Example 12.2], 4300 nM; to `CC(=O)NC(C)Cc1ccc(C#Cc2ccnc(Oc3ccccc3)n2)cc1` (stereo not drawn) [Example 12.3], 1300 nM. Compound `CC(=O)NC(C)Cc1ccc(C#Cc2ccnc(OCC(C)C)n2)cc1` (stereo not drawn) [Example 12.4] yielded an IC50 of 980 nM. To `CC(=O)NC(C)Cc1ccc(C#Cc2ccnc(OCC3CC3)n2)cc1` (stereo not drawn) [Example 12.5] belongs 1600 nM; to `CC(=O)NC(C)Cc1ccc(C#Cc2ccnc(OC3CCC3)n2)cc1` (stereo not drawn) [Example 12.6], 1100 nM. To `CCC(C)Oc1nccc(C#Cc2ccc(CC(C)NC(C)=O)cc2)n1` (stereo not drawn) [Example 12.7] belongs 3600 nM; to `CCCOc1nccc(C#Cc2ccc(CC(C)NC(C)=O)cc2)n1` (stereo not drawn) [Example 12.8], 2200 nM; to `COCCOc1ncc(C#Cc2ccc(CC(C)NC(C)=O)cc2)cn1` (stereo not drawn) [Example 12.9], 2100 nM. Compound `CC(=O)NC(C)Cc1ccc(C#Cc2cnc(OC3CCOC3)nc2)cc1` (stereo not drawn) [Example 12.10] came in with an IC50 of 630 nM. The figure for `CC(=O)NC(C)Cc1ccc(C#Cc2cnc(OCC(C)C)nc2)cc1` (stereo not drawn) [Example 12.11] is 670 nM. Take `CC(=O)NC(C)Cc1ccc(C#Cc2cnc(OC3CCC3)nc2)cc1` (stereo not drawn) [Example 12.12]: half-maximal inhibition (IC50) was put at 90 nM. The figure for `CC(=O)NC(C)Cc1ccc(C#Cc2cnc(OCC3(C)CC3)nc2)cc1` (stereo not drawn) [Example 12.13] is 430 nM; for `CC(=O)NC(C)Cc1ccc(C#Cc2cnc(OCc3cc(C)on3)nc2)cc1` (stereo not drawn) [Example 12.14] it is 2500 nM. `CCCOc1ncc(C#Cc2ccc(CC(C)NC(C)=O)cc2)cn1` (stereo not drawn) [Example 12.15] had an IC50 of 230 nM. To `CC(=O)NC(C)Cc1ccc(C#Cc2cnc(Oc3ccccc3)nc2)cc1` (stereo not drawn) [Example 12.16] belongs 170 nM; to `CCOc1ncc(C#Cc2ccc(CC(C)NC(C)=O)cc2)cn1` (stereo not drawn) [Example 12.17], 380 nM. The figure for `CC(=O)NC(C)Cc1ccc(C#Cc2ccnc(OC(C)C)n2)cc1` (stereo not drawn) [Example 12.18] is 7100 nM; for `CC(=O)NC(C)Cc1ccc(C#Cc2cnc(OCCC(C)C)nc2)cc1` (stereo not drawn) [Example 12.19] it is 1200 nM.

Values taken from US8835472B2, “Compounds, pharmaceutical compositions and uses thereof” (Boehringer Ingelheim International GmbH, priority 2010, dated 2014).
